Experimental data from patent US6576652B2, “Use of an angiotensin II receptor antagonist for the preparation of drugs to increase the survival rate of renal transplant patients” (Merck Sharp & Dohme (Italia) S.p.A., priority 1997, dated 2003).

Assays:
conscious Dogs = assay: Hypotensive effects before and after furosemide in conscious dogs; assay type: in vivo, dog; details: cumulative iv 0.3 to 3 mg/kg
Text: The hypotensive effects of 2-butyl-4-chloro-1-[(2′-(1H-tetrazol-5-yl)biphenyl-4-yl)methyl]-5-hydroxymethylimidazole sodium salt were compared before and after furosemide administration to conscious Dogs.

[1] = tested on: bilaterally nephrectomized Lewis rats transplanted with kidney from Fisher 344 donor rat; assay: Chronic renal allograft failure rat model, 6 month follow-up; details: for FSGS % (range) / Animal survival / Proteinuria / SBP: end of 6 month follow-up; for Animal survival: allograft rats; for Proteinuria / SBP: mean ±SD
Protocol: Transplanted rats received cyclosporine (5 mg/kg/day i.m.) for the first 10 days to prevent acute rejection, and doses of antihypertensive drugs were adjusted to maintain blood pressure within the normal range.

[2] = tested on: awake rats made hypertensive by ligation of the left renal artery; assay: Antihypertensive effects in renal hypertensive rats; assay type: in vivo, rat; details: Table 1
Protocol: This procedure increases blood pressure by increasing renin production with consequent elevation of All levels. Compounds are administered orally at 100 mg/kg and/or intravenously via a cannula in the jugular vein at 10 mg/kg. Arterial blood pressure is continuously measured directly through a carotid artery cannula and recorded using a pressure transducer and a polygraph. Blood pressure levels after treatment are compared to pretreatment levels to determine the antihypertensive effects of the compounds (See Table 1). Compounds listed in Table 2 were tested in the same manner as described for Table 1, except that in the test for anti hypertensive effects in renal hypertensive rats, the compounds were administered orally at 30 mg/kg and intravenously at 3 mg/kg.

Structure (SMILES)	Effect on blood pressure (conscious Dogs; after furosemide 10 mg/kg im at 18 and 2 hours before)	Inhibition of pressor response to AII (conscious Dogs; after furosemide 10 mg/kg im)	Inhibition of pressor response to AII (conscious Dogs; before furosemide, 10 min post dose)	Effect on blood pressure (conscious Dogs; normotensive conscious dogs, before furosemide, n=4)	FSGS % (range) [1]	Animal survival [1] [%]	Proteinuria [1]	SBP [1] [mm HG]	Antihypertensive Effects in Renal Hypertensive Rats Intravenous Activity ([2]; intravenous, 10 mg/kg)	Antihypertensive Effects in Renal Hypertensive Rats Oral Activity ([2]; oral, 100 mg/kg)	Protection from chronic allograft injury and long-term animal survival ([1]; at comparable level of SBP control)
CCCCc1nc(Cl)c(CO)n1Cc1ccc(-c2ccccc2-c2nnn[nH]2)cc1.[Na] [2-butyl-4-chloro-1-[(2′-(1H-tetrazol-5-yl)biphenyl-4-yl)methyl]-5-hydroxymethylimidazole sodium salt]	caused a significant decrease	inhibited the pressor response to AII at the two higher doses	effective in inhibiting the pressor response to AII	did not lower blood pressure							
CCOC(=O)C1=C(C)NC(C)=C(C(=O)OCC)C1c1ccccc1/C=C/C(=O)OC(C)(C)C [Lacidipine, reference compound]					15 (10-20) %	34	167 ± 26° mg/day	125 ± 7			
CCCCc1nc(Cl)c(CO)n1Cc1ccc(-c2ccccc2-c2nn[nH]n2)cc1 [Losartan, 2-n-butyl-4-chloro-5-hydroxymothyl-1-[(2′-(1H-tetrazol-5-yl)biphenil-4-yl)methyl]imidazole]					3 (0-10) %	100	71 ± 46 mg/day	114 ± 12	+ (Significant decrease in blood pressure at 10, mg/kg or less)	+ (Significant decrease in blood pressure at 100 mg/kg or less)	effectively protects animals from chronic allograft injury
